{"source": "patent US8853264B2", "about": "“Use of lignan compounds for treating or preventing inflammatory disease” (Newtree Industry Co., Ltd., priority 2005, dated 2014)", "key": {"[1]": {"system": "TNF-α mRNA", "test": "TNF-α mRNA level in skin lesion (RT-PCR)", "assay_type": "in vivo, NC/Nga mice", "method": "(§1) In order to induce atopic dermatitis, 100 mg of mite antigen cream was applied on the ear, occipital region and back of NC/Nga mouse (9 to 11 weeks old), except for the negative control group, 3 times a week, 2 hours after the application of 4% SDS solution. Three weeks later, it was observed whether atopic dermatitis was induced by checking skin rash, erythema, cornification, or the like. Atopic dermatitis was induced in all groups except for the negative control group. […] Transepidermal water loss (TEWL), skin hydration and erythema index were measured one day before the end of the test. […]\n(§2) After the end of the experiment, skin tissue was isolated from the occipital region to the back of the mouse, immersed in liquid nitrogen, pulverized using a mortar, dissolved in 500 μL of TRIzol® (InvitrogenLife Technologies, USA), and then homogenized using a homogenizer in order to measure mRNA level of cytokines in skin lesion. […] After the centrifuge, the supernatant was discarded and the remaining pellets were washed 2 times with 100% ethanol, dried, and then subjected to RNA quantification by spectrophotometry. […]"}, "[2]": {"system": "IL-13 mRNA", "test": "IL-13 mRNA level in skin lesion (RT-PCR)", "assay_type": "in vivo, NC/Nga mice", "method": "as §1, §2"}, "[3]": {"test": "Airway hypersensitivity test, allergen-induced asthma", "assay_type": "in vivo, C57BL/6 (B6) male mice", "conditions": "oral administration in corn oil, every day; vs vehicle group; p<0.05", "method": "(§3) 5 μL of allergen, AP (aspergillus protease, 1 mg/mL, Sigma-Aldrich, St. Louis, Mo.) was mixed with 45 μL of OVA (chicken egg ovalbumin, 0.5 mg/mL, Sigma-Aldrich). After 3 intraperitoneal injections with 4-day intervals, asthma was induced by 2 intranasal challenges with 4-day interval. The intranasal challenge was performed under isoflurane inhalational anesthesia. Macelignan dissolved in corn oil was orally administered every day.\nWithin 24 hours after the last allergen challenge, the mouse was anesthetized by intraperitoneal injection of 0.1 mg/g sodium pentobarbital. After tracheal intubation, flexiVent (Scireq®, Montreal, Canada) was connected to maintain stable ventilation. Thereafter, striated muscle was relaxed by intravenous (IV) administration of 0.08 mg/kg pancuronium (Sigma-Aldrich). Following airway hypersensitivity test by IV administration of acetylcholine (Sigma-Aldrich), 1 mL of DPBS (Dulbecco's phosphate buffered saline) was injected twice into the intubation tube using a syringe for bronchioalveolar lavage. […]\nFor airway hypersensitivity test, the mouse was anesthetized using sodium pentobarbital and, after tracheal intubation, flexiVent was connected to maintain stable ventilation. […] Immediately after IV administration of acetylcholine, airway resistance was measured 3 times by snapshot. The mean value was recorded as airway resistance."}, "[4]": {"system": "glycoprotein (mucin)", "test": "Glycoprotein level in BAL fluid (ELISA), asthma model", "assay_type": "in vivo, C57BL/6 (B6) male mice", "conditions": "oral 400 μg/g and 800 μg/g", "method": "as §3\nWithin 24 hours after the last allergen challenge, the mouse was anesthetized by intraperitoneal injection of 0.1 mg/g sodium pentobarbital. After tracheal intubation, flexiVent (Scireq®, Montreal, Canada) was connected to maintain stable ventilation. Thereafter, striated muscle was relaxed by intravenous (IV) administration of 0.08 mg/kg pancuronium (Sigma-Aldrich). […]\nWhen asthma is induced, secretion of mucin increases in the airway. Glycoprotein ELISA was carried out to quantitate mucin in BAL fluid. […] After blocking, followed by treating with biotinylated jacalin and then with streptavidin-alkaline phosphatase, substrate was added and absorbance was measured at 405 nm Glycoprotein level in the BAL fluid was determined by comparing with the standard curve obtained using the standard solution."}, "[5]": {"conditions": "oral administration 50 and 150 mg/kg"}, "[6]": {"conditions": "topical application 20 and 60 mg/kg"}}}
{"smiles": "COc1cc(C[C@H](C)[C@H](C)Cc2ccc3c(c2)OCO3)ccc1O", "note": "(single isomer, unassigned) [macelignan]", "values": [{"measurement": "TNF-α mRNA level in skin lesion", "setting": "[1]; [5]", "value": "statistically significant effect of decreasing TNF-α mRNA level"}, {"measurement": "TNF-α mRNA level in skin lesion", "setting": "[1]; [6]", "value": "effect of decreasing TNF-α mRNA level"}, {"measurement": "IL-13 mRNA level in skin lesion", "setting": "[2]; [5]", "value": "statistically significant effect of decreasing IL-13 mRNA level"}, {"measurement": "IL-13 mRNA level in skin lesion", "setting": "[2]; [6]", "value": "effect of decreasing IL-13 mRNA level"}, {"measurement": "airway hypersensitivity", "setting": "[3]", "value": "statistically significant decrease of airway hypersensitivity"}, {"measurement": "glycoprotein level in the BAL fluid", "setting": "[4]", "value": "decreased glycoprotein level"}]}
